Source: PubChem BioAssay (NCI)
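All cell lines were grown in 96-well plates and treated with compound for 48 hours. GI50 = concentration required for 50% inhibition of growth. TGI: total growth inhibition.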

Columns and labels:
Experiment in all cases: DTP human tumour cell line panel, 48 h; in the data active = GI50 below about 0.43 µM; inactive = the rest
[1] = tested on: A498 renal
[2] = tested on: SF-295 CNS
[3] = tested on: HOP-62 NSCLC
[4] = tested on: SR leukemia
[5] = tested on: M14 melanoma
[6] = tested on: HS 578T breast
[7] = tested on: RPMI-8226 leukemia
[8] = tested on: NCI-H23 lung
[9] = tested on: OVCAR-4 ovarian
[10] = tested on: SK-MEL-2 melanoma
[11] = tested on: UO-31 renal
[12] = tested on: MALME-3M melanoma
[13] = tested on: SW-620 colon
[14] = tested on: HCT-15 colon
[15] = tested on: TK-10 renal
[16] = tested on: MDA-MB-231 breast
[17] = tested on: UACC-62 melanoma
[18] = tested on: NCI-H460 lung
[19] = tested on: HCT-116 colon
[20] = tested on: ACHN renal
[21] = tested on: HOP-92 NSCLC
[22] = tested on: RXF 393 renal
[23] = tested on: BT-549 breast
[24] = tested on: SF-268 CNS
[25] = tested on: SK-MEL-5 melanoma
[26] = tested on: A549 NSCLC
[27] = tested on: IGROV1 ovarian
[28] = tested on: CAKI-1 renal
[29] = tested on: KM12 colon
[30] = tested on: MCF7 breast
[31] = tested on: EKVX NSCLC
[32] = tested on: LOX IMVI melanoma
[33] = tested on: NCI-H226 lung
[34] = tested on: OVCAR-8 ovarian
[35] = tested on: OVCAR-3 ovarian
[36] = tested on: K-562 leukemia
[37] = tested on: NCI/ADR-RES ovarian
[38] = tested on: PC-3 prostate
[39] = tested on: SK-OV-3 ovarian
[40] = tested on: OVCAR-5 ovarian
[41] = tested on: MOLT-4 leukemia
[42] = tested on: DU-145 prostate
[43] = tested on: HCC-2998 colon
[44] = tested on: NCI-H522 lung
[45] = tested on: SN12C renal
[46] = tested on: HT29 colon
[47] = tested on: SF-539 CNS
[48] = tested on: T-47D breast
[49] = tested on: HL-60(TB) leukemia
[50] = tested on: SK-MEL-28 melanoma
[51] = tested on: MDA-MB-435
[52] = tested on: SNB-75 CNS
[53] = tested on: SNB-19 CNS
[54] = tested on: COLO 205 colon
[55] = tested on: CCRF-CEM leukemia
[56] = tested on: U251 CNS
[57] = tested on: 786-0 renal
[58] = tested on: UACC-257 melanoma

Cc1cc(O)ccc1C1=NN(c2ccc(S(C)(=O)=O)cc2)C(=O)CC1
48.4 µM: TGI [49]
45.4 µM: TGI [1]
32.8 µM: TGI [10]
5.83 µM: TGI [51]
16.5 µM: TGI [28]
9.44 µM: TGI [35]
74.4 µM: TGI [54]
> 100 µM: TGI [3] | TGI [4] | TGI [5] | TGI [6] | TGI [7] | TGI [8] | TGI [9] | TGI [11] | TGI [12] | TGI [13] | TGI [14] | TGI [15] | TGI [16] | TGI [17] | TGI [18] | TGI [19] | TGI [20] | TGI [21] | TGI [22] | TGI [23] | TGI [24] | TGI [25] | TGI [26] | TGI [27] | TGI [29] | TGI [30] | TGI [31] | TGI [32] | TGI [33] | TGI [34] | TGI [36] | TGI [37] | TGI [38] | TGI [39] | TGI [40] | TGI [41] | TGI [42] | TGI [43] | TGI [45] | TGI [47] | TGI [48] | TGI [50] | TGI [53] | TGI [55] | TGI [56] | TGI [57] | TGI [58]
8.6 µM: TGI [44]
32.3 µM: TGI [46]
inactive: GI50 [1] 2.78 µM | GI50 [2] 2.87 µM | GI50 [3] 9.07 µM | GI50 [4] 3.39 µM | GI50 [5] 3.85 µM | GI50 [6] 4.15 µM | GI50 [7] 25.6 µM | GI50 [8] 38.5 µM | GI50 [9] 76.9 µM | GI50 [10] 3.48 µM | GI50 [11] 14.8 µM | GI50 [12] 5.37 µM | GI50 [13] 3.32 µM | GI50 [14] 7.91 µM | GI50 [15] 80.5 µM | GI50 [16] 17.1 µM | GI50 [17] 4 µM | GI50 [18] 3.87 µM | GI50 [19] 3.78 µM | GI50 [20] 37.8 µM | GI50 [21] 6.49 µM | GI50 [22] 12.8 µM | GI50 [23] 4.97 µM | GI50 [24] 40 µM | GI50 [25] 5.49 µM | GI50 [26] 6.2 µM | GI50 [27] 7.13 µM | GI50 [28] 2.79 µM | GI50 [29] 4.22 µM | GI50 [30] 20.7 µM | GI50 [31] 57.9 µM | GI50 [32] 7.25 µM | GI50 [33] > 100 µM | GI50 [34] 12.3 µM | GI50 [35] 3.41 µM | GI50 [36] 3.74 µM | GI50 [37] 3.26 µM | GI50 [38] 14.8 µM | GI50 [39] 9.77 µM | GI50 [40] 53.8 µM | GI50 [41] 14.3 µM | GI50 [42] 24.7 µM | GI50 [43] 46.7 µM | GI50 [44] 2.53 µM | GI50 [45] 7.18 µM | GI50 [46] 3.7 µM | GI50 [47] 13.2 µM | GI50 [48] 20.2 µM | GI50 [49] 3.52 µM | GI50 [50] 9.55 µM | GI50 [51] 1.28 µM | GI50 [52] 5.53 µM | GI50 [53] 50.4 µM | GI50 [54] 6.62 µM | GI50 [55] 9.09 µM | GI50 [56] 4.3 µM | GI50 [57] 92.5 µM | GI50 [58] 5.65 µM
12.4 µM: TGI [2]
75.2 µM: TGI [52]

COc1cc(-c2nc3ccccc3s2)ccc1NC(=O)COc1ccc(Cl)cc1
27.6 µM: TGI [37]
11.3 µM: TGI [22]
> 100 µM: TGI [1] | TGI [4] | TGI [5] | TGI [6] | TGI [7] | TGI [11] | TGI [12] | TGI [13] | TGI [14] | TGI [16] | TGI [18] | TGI [19] | TGI [20] | TGI [23] | TGI [25] | TGI [26] | TGI [28] | TGI [29] | TGI [30] | TGI [31] | TGI [32] | TGI [35] | TGI [36] | TGI [38] | TGI [39] | TGI [40] | TGI [41] | TGI [42] | TGI [43] | TGI [45] | TGI [46] | TGI [47] | TGI [48] | TGI [49] | TGI [51] | TGI [52] | TGI [54] | TGI [55] | TGI [58]
25.6 µM: TGI [8]
21.2 µM: TGI [27]
34.3 µM: TGI [3]
71.3 µM: TGI [50]
4 µM: TGI [57]
4.99 µM: TGI [21]
7.06 µM: TGI [15]
6.8 µM: TGI [56]
12.1 µM: TGI [44]
93.2 µM: TGI [9]
59.2 µM: TGI [33]
19.4 µM: TGI [53]
50.4 µM: TGI [24]
inactive: GI50 [1] 44.5 µM | GI50 [2] 3.35 µM | GI50 [3] 4.15 µM | GI50 [4] 76.5 µM | GI50 [5] 8.54 µM | GI50 [6] 3.73 µM | GI50 [7] 11.8 µM | GI50 [8] 3.01 µM | GI50 [9] 3.9 µM | GI50 [10] 3.52 µM | GI50 [11] 1.49 µM | GI50 [12] 5.07 µM | GI50 [13] 53.7 µM | GI50 [14] > 100 µM | GI50 [15] 2.68 µM | GI50 [16] 4.98 µM | GI50 [17] 2.74 µM | GI50 [18] 2.99 µM | GI50 [19] 4.41 µM | GI50 [20] 4.92 µM | GI50 [21] 1.66 µM | GI50 [22] 3.25 µM | GI50 [23] > 100 µM | GI50 [24] 3.02 µM | GI50 [25] 8.68 µM | GI50 [26] 3.07 µM | GI50 [27] 1.14 µM | GI50 [28] 6.95 µM | GI50 [29] 3.91 µM | GI50 [30] 5.05 µM | GI50 [31] 8.67 µM | GI50 [32] 4.69 µM | GI50 [33] 4.31 µM | GI50 [34] 2.79 µM | GI50 [35] 6.8 µM | GI50 [36] 5.35 µM | GI50 [37] 3.22 µM | GI50 [38] 3.51 µM | GI50 [39] 36.5 µM | GI50 [40] 13.4 µM | GI50 [41] > 100 µM | GI50 [42] 8.28 µM | GI50 [43] 18.6 µM | GI50 [44] 2.71 µM | GI50 [45] 5.29 µM | GI50 [46] 3.66 µM | GI50 [47] 61.6 µM | GI50 [48] 4.42 µM | GI50 [49] > 100 µM | GI50 [50] 6.33 µM | GI50 [51] 8.16 µM | GI50 [52] 42.9 µM | GI50 [53] 3.71 µM | GI50 [54] 6.45 µM | GI50 [55] > 100 µM | GI50 [56] 2.23 µM | GI50 [57] 1.96 µM | GI50 [58] 13.5 µM
46.6 µM: TGI [34]
13 µM: TGI [17]
15.3 µM: TGI [10]
25.1 µM: TGI [2]
